These results are taken from patent publication US6558712B1, “Delivery system for pharmaceutical, nutritional and cosmetic ingredients” (Natreon Inc., priority 2001, dated 2003).

On data set [1], the source says:
(§1) Glibenclamide (Gb) is an oral hypoglycaemic agent of the sulfonyl urea group; however it is only sparingly soluble in water.

For data set [2], the system named is albino rats, made partially diabetic by administering streptozotocin. As to the kind of experiment: Hypoglycaemic action (plasma glucose level) in albino rats made partially diabetic by streptozotocin. The data set is classed as in vivo, rat. The following applies: Gb 1.0 mg/kg, water-suspension, p.o., n=10.
Excerpt: as §1

The subject of data set [3] is albino rats. As to the kind of experiment: Analgetic effect in albino rats, oral. The data set is classed as in vivo, rat. The following applies: Ptz alone, up to 240 mg/kg, p.o.
The subject of data set [4] is human volunteers. The experiment in a line: Analgetic effect in human volunteers, oral. The following applies: Ptz alone, 50 mg oral. Type of data set: in vivo.
The conditions of data set [5]: oral; background statement, species not given; cited from earlier work.
For data set [6], the system named is Streptozocin (Stz)-induced diabetic (SID) rats. The experiment in a line: Plasma glucose level lowering in streptozocin-induced diabetic (SID) rats. The data set is classed as in vivo, rat. The method, then:
Streptozocin (Stz)-induced diabetic (SID) rats were used for this study. Insulin (I, 1.0 U/kg, p.o.) produed only marginal lowering (<10%) of plasma glucose level (PGL) in SID rats. […] By contrast, purified fulvic acid-insulin compositions (0.25 U/kg+10 mg/kg, p.o.) produced a 25% lowering, and Fulvic Acid-Insulin compositions (0.5 U/kg+10 mg/kg, p.o.) produced a 38% lowering of PGL in SID rates. The effect lasted for 6 hours.

With `COc1ccc(Cl)cc1C(=O)NCCc1ccc(S(=O)(=O)NC(=O)NC2CCCCC2)cc1` [Gb, Glibenclamide], the solubility in water in data set [1] is 10-12%. In addition, the “blood sugar lowering effect” value in data set [2] is given as “did not exhibit any noticeable blood sugar lowering effect”.
For the compound `CC(C)=CCN1CCC2(C)c3cc(O)ccc3CC1C2C` (stereo not shown) [Ptz, Pentazocin], the analgetic effect result in data set [3] is recorded as “does not exhibit any analgetic effect”. Besides, in data set [4], the “analgetic effect compared with codeine” value was “effective analgetic equivalent to 60 mg of codeine”, the duration of analgesia was 120 min and the “time of onset of analgesia” value is reported as 60 min. Besides, in data set [5], the “bioavailability, administered orally” value is 30-35%.
Regarding Insulin, the PGL lowering effect result in data set [6] (insulin 0.25 U/kg p.o.) and in data set [6] (insulin 0.5 U/kg p.o.) was “did not exhibit any PGL lowering effect” each time. Besides, in data set [6] (insulin 1.0 U/kg, p.o.), the “lowering of plasma glucose level (PGL)” value is given as less than 10%.
